These results are taken from ChEMBL document CHEMBL1949671, “Design and synthesis of estrogen receptor degradation inducer based on a protein knockdown strategy” (Bioorg Med Chem Lett, 2012).

Activity calls are given as the source filed them. No cut-off for these calls is given here.

The target in assay [1] is T1, Baculoviral IAP repeat-containing protein 2/Estrogen receptor (Homo sapiens) (UniProt P03372+Q13490). As to the kind of experiment: Binding affinity to cIAP1/ERalpha in human MCF7 cells assessed as proteasomal degradation of ERalpha at 10 to 30 uM after 6 hrs by Western blot analysis. The format is cell-based. (In western blotting, separated proteins are transferred to a membrane and probed.)

In assay [2] the target is T1, Baculoviral IAP repeat-containing protein 2/Estrogen receptor (Homo sapiens). Nature of the assay: Binding affinity to cIAP1/ERalpha in human MCF7 cells assessed as proteasomal degradation of ERalpha after 6 hrs by Western blot analysis in presence of proteasome inhibitor MG132. The format is cell-based.

Consider `CCC(=C(c1ccc(O)cc1)c1ccc(OCCN(C)C(=O)CCCCNC(=O)[C@H](CC(C)C)NC(=O)[C@@H](O)[C@H](N)Cc2ccccc2)cc1)c1ccccc1`, for which, in assay [1], the result was Active. For the same compound, the result in assay [2] was inactive.
The corresponding values for `CCC(=C(c1ccc(O)cc1)c1ccc(OCCN(C)C(=O)CCNC(=O)[C@H](CC(C)C)NC(=O)[C@@H](O)[C@H](N)Cc2ccccc2)cc1)c1ccccc1` are “Active” and “inactive”.
Turning to `CCC(=C(c1ccc(O)cc1)c1ccc(OCCN(C)C(=O)CCCCCCNC(=O)[C@H](CC(C)C)NC(=O)[C@@H](O)[C@H](N)Cc2ccccc2)cc1)c1ccccc1`, the outcome in assay [1] was Active. For the same compound, in assay [2], the outcome was inactive.
